Reference: patent US11566260B2, “Potentiating agents for protecting plants from fungal infections” (UNIVERSITE D'ANGERS, priority 2012, dated 2023)

Legend:
Alternaria brassicicola [1] = assay: Test B: potentiating effect with a plant defense molecule on growth of Alternaria brassicicola; format: cell-based; conditions: Alternaria brassicicola
Method: Test B: • 1) Determining a non-fungicidal amount of said agent, preferably according to Test A; • 2) Determining a non-fungicidal amount of a plant defense molecule, preferably according to Test A; • 3) Measuring growth of fungal conidia in a medium comprising a combination of a non-fungicidal amount of the agent, as determined in step 1, and a non-fungicidal amount of the plant defense molecule, as determined in step 2. In one embodiment, the growth is measured as follows: Suspensions of fungal conidia (starting material: 10^5 conidia/mL) are cultured in liquid medium, such as, for example, 300 μL of PBD medium, on microplate wells at 25° C. with shaking at 175 rpm for 5 minutes every 10 minutes. Non-fungicidal concentrations of the tested agent and of the tested plant defense molecule are added on wells, and fungal growth is measured during at least 5 hours, preferably at least 10, 20, 30 hours. Methods for measuring fungal growth are well known from the skilled artisan. Examples of such methods include, but are not limited to, photometry, such as, for example, spectrophotometric methods; or nephelometry, such as, for example, laser nephelometry as described in Joubert et al (Biotechniques, 2010, 48:399-404). Growth inhibition is measured by comparing the Area Under Curves (AUC) of treated samples and of untreated controls.
The potentiating effect of chelerythrin is measured in a suspension of conidia treated with a plant defense molecule, camalexin, which is present at a non-fungicidal amount as determined hereinabove. Said non-fungicidal amount is consistent with the amount of camalexin produced by an infected plant organ.
Alternaria brassicicola growth was measured as described hereinabove.
A non-fungicidal amount of chelerythrin (as determined in Example 1a) and/or a non-fungicidal amount of camalexin (as determined in Example 1b) or 10 μL of DMSO are added per well, and growth curves were drawn (FIG. 3).
In the Table 5 below are shown compounds (column 1) having a potentiating effect of a plant defense molecule (column 2) for the inhibition of a pathogenic fungus (column 3). The type of the potentiating agent in this particular situation is given in column 4 (homologous or heterologous). Triads were identified according to Test B.

Alternaria brassicicola [2] = assay: Test A: growth of Alternaria brassicicola conidia followed by nephelometry, to find the non-fungicidal amount; format: cell-based
Method: Suspensions of fungal conidia (starting material being for example 10^5 conidia/mL) are cultured in liquid medium, such as, for example, 300 μL of PBD medium, on microplate wells at 25° C. with shaking at 175 rpm for 5 minutes every 10 minutes. Increasing concentrations of the tested product are added on wells, and fungal growth is measured, during at least 5 hours, preferably at least 10, 20, 30 hours. Methods for measuring fungal growth are well known from the skilled artisan. Examples of such methods include, but are not limited to, photometry, such as, for example, spectrophotometric methods; or nephelometry, such as, for example, laser nephelometry as described in Joubert et al (Biotechniques, 2010, 48:399-404). Growth inhibition is measured by comparing the Area Under Curves (AUC) of treated samples and of untreated controls. Test A is carried out in Example 1.
Alternaria brassicicola strains were cultivated at 24° C. on potato dextrose (PD) medium (Cat. No. 213200; Becton Dickinson, USA).
For inoculum preparation, conidia were collected from 8-days-old solid cultures by adding PD broth followed by gentle scraping of the agar plates. They were counted in a Thoma's chamber and the conidial suspensions were diluted to the concentration of 10^5 conidia/mL.
Growth was automatically recorded for at least 30 hours at 25° C. using a nephelometric reader (NEPHELOstar Galaxy, BMG Labtech, Germany) equipped with a 635-nm laser as radiation source. During incubation, the 96-well plates were subjected to shaking at 175 rpm for 5 minutes every 10 minutes. Measurements were done every hour with a gain value of 90 and a percentage of the maximum value of 20%. Each well was measured for 0.1 second with a laser beam of 2.5 mm.
Chelerythrin (25 μM or 50 μM, test wells) or 10 μL of DMSO (chelerythrin solvent, control wells) were added on wells, and growth curves were drawn (FIG. 1).
Camalexin (10, 20, 40 or 60 μM, test wells) or 10 μL of DMSO (chelerythrin solvent, control wells) were added on wells, and growth curves were drawn (FIG. 2).

[3] = plant defense molecule Resveratrol
[4] = plant defense molecule Brassinin

SMILES | Type of potentiating agent (compound having a potentiating effect of the plant defense molecule) (Alternaria brassicicola [1]; [3]) | Type of potentiating agent (compound having a potentiating effect of the plant defense molecule) (Alternaria brassicicola [1]; [4]) | Type of potentiating agent (compound having a potentiating effect of the plant defense molecule) (Alternaria brassicicola [1]; plant defense molecule Camalexin) | inhibition of Alternaria brassicicola growth (Alternaria brassicicola [2]; 10 μM camalexin) | inhibition of Alternaria brassicicola growth (Alternaria brassicicola [2]; 20 μM camalexin)
CCOc1cc2c(OCC)cc3c4cc(OC)c(OC)cc4cnc3c2cc1OC [Compound 3] | Heterologous | – | – | – | –
COc1cc2c[n+](C)c3c4cc(OC)c(OC)cc4c(OCc4ccccc4)cc3c2cc1OC [Compound 4] | Heterologous | Homologous | – | – | –
COc1cc2c(OC)cc3c4cc(OC)c(OC)cc4c(=O)n(C)c3c2cc1OC [Compound 5] | Heterologous | Homologous | – | – | –
c1c2c(cc3c1OCO3)-c1cc3ccc4c(c3c[n+]1CC2)OCO4 [Coptisin] | – | Homologous | Homologous | – | –
c1ccc2c(-c3nccs3)c[nH]c2c1 [camalexin, reference compound] | – | – | – | ≤ 20% | ≤ 20%
